Measurements: patent US20230330110A1, “HARD CAPSULE DOSAGE FORM AND USES THEREOF” (EIRGEN PHARMA LTD., priority 2020, published 2023)

Experiments:
[1] = Repeated-dose study in SHPT, stage 3 or 4 CKD, vitamin D insufficiency: serum total 25-hydroxyvitamin D; type: in vivo, human; conditions: target of 30 ng/mL; end of second month of treatment (EAP2)
Method: (§1) A study is carried out with repeated-dosing of ERC (Rayaldee® (calcifediol) extended-release capsules), IR calcifediol (“IRC”), high-dose cholecalciferol (“HDC”), and paricalcitol plus low-dose cholecalciferol (“PLDC”) in adult patients with secondary hyperparathyroidism (SHPT), stage 3 or 4 chronic kidney disease (CKD) and vitamin D insufficiency.
(§2) This is an open-label study to gather comparative data evaluating the ERC, IR calcifediol, high-dose cholecalciferol, and paricalcitol plus low-dose cholecalciferol. Eligible subjects were randomized 1:1:1:1 to receive 8 weeks of treatment with one of the listed study medications with a sufficient quantity of a non-alcoholic beverage to enable swallowing of the capsules: • 1) ERC capsules 60 μg once daily at bedtime, except on Days 1 and 29 when dosing occurred in the morning before breakfast in the phase 1 unit; • 2) IR calcifediol 266 μg before breakfast on the mornings of Day 1 and Day 29 in the phase 1 unit; • 3) cholecalciferol 300,000 IU (high-dose) before breakfast on the mornings of Day 1 and Day 29 in the phase 1 unit; and • 4) paricalcitol 1 μg (possibly increasing to 2 μg per day at Day 29) plus cholecalciferol 800 IU (low-dose) once daily in the morning before breakfast, except on the mornings of Days 1 and 29 when dosing occurred before breakfast in the phase 1 unit. […]

Plasma iPTH = test: Repeated-dose study (Example 3): plasma iPTH-lowering response; type: in vivo, human; conditions: EAP2
Method: as §1, §2

[2] = Stability of calcifediol in acidic dissolution media (Example 4); type: physicochemical; conditions: pH 1.2 medium, 37° C., after 6 hours
Method: The stability of calcifediol was tested in acidic dissolution media at ambient/light conditions and also in dark conditions, at 37° C., 20° C., and 10° C., using 30 μg calcifediol extended release capsules.

Compound	serum total 25-hydroxyvitamin D response rate [1]	plasma iPTH response rate (Plasma iPTH; response = ≥20% reduction from pre-treatment baseline)	plasma iPTH response rate (Plasma iPTH; response = ≥30% reduction from pre-treatment baseline)	degradation [2]
C=C1CC[C@H](O)C/C1=C/C=C1\CCC[C@]2(C)[C@@H]([C@H](C)CCCC(C)C)CC[C@@H]12 [HDC, cholecalciferol]	44%	37.5%	25.0%	–
C=C1CC[C@H](O)C/C1=C/C=C1\CCC[C@]2(C)[C@@H]([C@H](C)CCCC(C)(C)O)CC[C@@H]12 [calcifediol]	–	–	–	about 90%
